From patent US8106218B2, “Pharmaceutical compounds” (Neuroscienze Pharmaness S.C. A R.L., priority 2004, dated 2012)
Like-named read-outs stand apart in the source and are kept apart here.

Key:
[1] = target: T1, cannabinoidergic CB2 receptors (Rattus norvegicus, UniProt Q9QZN9); assay: Radioreceptorial binding, [3H]-CP-55,940 competition, rat spleen membranes; details: rat spleen membranes, 1 nM [3H]-CP55,940; read-out: CB2 (spleen) Ki
T1 construct: the brain in toto (cerebellum excluded) and the spleen were rapidly dissected and maintained in ice; from tissue; host or cells: rat spleen, membrane preparation
T1 sequence (Q9QZN9 1-360): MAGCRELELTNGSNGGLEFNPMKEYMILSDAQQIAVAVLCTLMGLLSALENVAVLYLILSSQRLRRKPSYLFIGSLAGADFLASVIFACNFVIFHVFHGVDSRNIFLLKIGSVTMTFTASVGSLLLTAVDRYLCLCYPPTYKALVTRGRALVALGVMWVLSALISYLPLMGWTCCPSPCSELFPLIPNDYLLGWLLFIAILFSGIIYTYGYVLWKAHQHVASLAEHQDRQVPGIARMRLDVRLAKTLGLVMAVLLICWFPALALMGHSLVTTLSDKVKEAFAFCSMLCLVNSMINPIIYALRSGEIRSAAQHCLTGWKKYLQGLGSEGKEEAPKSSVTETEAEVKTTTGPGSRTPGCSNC
Protocol: (§1) The affinity of the synthesized compounds towards the cannabinoidergic CB1 and CB2 receptors was evaluated in vitro through radioreceptorial binding studies by utilizing the following method.
(§2) The receptorial binding technique allows indeed to establish if and with what affinity and specificity a determined compound binds itself to a particular receptor. To evaluate the possible affinity of a determined compound towards a particular receptor it is necessary to make to compete (in a particular preparation of the tissue in which those determined receptors are present) the compound to be tested with another compound whose affinity is known and whose molecule was rendered radioactive. […] The reading of the radioactivity present in the receptor-compound complex allows furthermore to calculate with extreme precision the amount of compound bound to the receptor. […] By repeating the same experimental scheme it is possible to evaluate the affinity of the compound towards other kinds of receptors and establish then the specificity degree.
(§3) Food and water were available ad libitum.
(§4) The animals were sacrificed by cervical dislocation, the brain in toto (cerebellum excluded) and the spleen were rapidly dissected and maintained in ice.
(§5) The tissue was homogenized in 15 volumes (weight/volume) of TME buffer (50 mM Tris, 1 mM EDTA e 3 mM MgCl2, pH 7.4) by an Ultra-Turrax and centrifuged for 10 minutes at 1086×g in a centrifuge cooled at 4° C. The resulting supernatant was centrifuged at 45,000×g for 30 min at 4° C. by using a Beckman SW41 rotor and the final pellet was resuspended in 50 volumes of TME.
(§6) The obtained membranes (50-80 μg of proteins) were incubated in the presence of 1 nM di[^3H]-CP55,940 for 1 h at 30° C. in a final volume of 0.5 ml of TME buffer containing 5 mg/ml of bovine serum albumin (BSA). The non specific binding was measured in the presence of CP55,940 at the 1 μM concentration.
(§7) All the experiments were carried out in polypropylene test tubes pretreated with Sigma-Cote (Sigma Chemical Co. Ltd., Poole, UK) to reduce the non specific binding.
(§8) For the building of the competitive inhibition binding curves eight different concentrations of each compound were used.
(§9) Incubation was interrupted by addition of TME buffer (at 4° C.) containing 5 mg/ml of BSA and filtration under vacuum through Whatman GFC filters pretreated with 0.5% of polyethylamine (PEI) and by using a filtering apparatus (Brandell, Gaithersburg, Md., USA). Filters were washed 3 times with 5 ml of Tris HCl buffer (pH 7.4, 4° C.) containing 1 mg/ml of BSA and singly placed in plastic vials containing 4 ml of scintillating liquid (Ultima Gold MV, Packard).
(§10) The radioactivity present in the filters was measured by a scintillator spectrophotometer (Tricarb 2100, Packard, Meridien, USA).
(§11) The protein determination was carried out by the Bradford method by using the protocol and the reactants supplied by Bio-Rad (Milano, Italia).
(§12) The affinity of the compounds towards the CB1 and CB2 receptors was expressed in Ki terms.

rat [2] = assay: Hypothermia test in vivo, antagonism of the hypothermia induced by WIN 55,212-2; details: for antagonist activity towards the hypothermia induced by WIN 55,212-2, in words: compound i.p. 30 min before WIN 55,212-2 (3 mg/kg)
Protocol: The rectal temperature in the rat was determined by an electronic thermometer inserted at a 2 mm depth. The measurements were carried out on rats acclimated for one hour. The rectal temperature was determined before and after (from 30 to 120 minutes) the i.p. administration of the compound to be tested.

[3] = target: T2, cannabinoidergic CB1 receptors (Rattus norvegicus, UniProt P20272); assay: Radioreceptorial binding, [3H]-CP-55,940 competition, rat brain membranes; details: rat brain membranes, 1 nM [3H]-CP55,940; read-out: CB1 (brain) Ki
T2 construct: the brain in toto (cerebellum excluded) and the spleen were rapidly dissected and maintained in ice; from tissue; host or cells: rat brain (cerebellum excluded), membrane preparation
Protocol: as §1, §2, §3, §4, §5, §6, §7, §8, §9, §10, §11, §12

rat [4] = details: for passage of the hemato-encephalic barrier: concluded from the hypothermia tests; for effect on body temperature (hypothermia) of the compound alone, in words: i.p., up to 120 min
Protocol: The rectal temperature in the rat was determined by an electronic thermometer inserted at a 2 mm depth. The measurements were carried out on rats acclimated for one hour. […]
Each test was repeated on ten animals; the reported results are the average of the results obtained with the ten animals.

rat intestinal motility [5] = assay: Intestinal motility, Upper Gut Transit Test, compound alone; type: in vivo; details: control 50%
Protocol: (§13) To evaluate the activity in vivo of the compounds (I) object of the present invention, functional tests were carried out directed to the evaluation of the effect of said compounds on the rat intestinal motility. It was indeed shown the involvement of the cannabinoidergic CB1 receptors in the intestinal motility regulation in rat (R. G. Pertwee et al; Br. J. Pharmacol.; 1996, 118, 2199-2205). In particular, the CB1 receptor agonists slacken the gastrointestinal motility; antagonist compounds of the same receptors have instead a prokinetic effect on the gastrointestinal transit (G. Colombo et al.; Eur. J. Pharmacol.; 1998, 344, 67-69; M. A. Casu et al.; Eur. J. Pharmacol.; 2003, 459, 97-105).
(§14) The evaluation of the constipating or prokinetic effect of the compounds was carried out by the Upper Gut Transit Test method on the basis of the procedure defined and ratified by Y. Nagakura et al.; Eur. J. Pharmacol.; 1996, 311, 67-72. The method, which allows to measure the motility of the stomach and of the first intestine tract (small or little intestine), requires: • the administration of the compound to be tested by i.p. route; • the administration of carmine red (marker not directly absorbable from the stomach) by intragastric route through a metal probe, after 20 minutes from the administration of the compound to be tested; • the rat sacrifice by cervical dislocation after a pre-fixed time (30 minutes) starting from the administration time; • the intestine explant from pylorus to the ileo-cecal valve; • the determination of the intestinal part crossed by the marker; • the data processing to determine the percentage of crossed part with respect to the total length of the small intestine.
With respect to the control (physiological solution or carrier wherein the compounds to be tested were solubilized or dispersed), the administration of CB1 agonist compounds implies an intestinal transit percentage reduction; an opposite effect is noticed in case of antagonist compounds. The latter are therefore capable to cancel the constipating effect of CB1 agonist compounds.
Each test was repeated on ten animals; the results reported in the Examples are the average of the results obtained with ten animals.

rat intestinal motility [6] = assay: Intestinal motility, Upper Gut Transit Test, antagonism of the constipating action of WIN 55,212-2; type: in vivo; details: compound 0.1 mg/kg before WIN 55,212-2 0.5 mg/kg, WIN alone 25%
Protocol: as §13, §14
With respect to the control (physiological solution or carrier wherein the compounds to be tested were solubilized or dispersed), the administration of CB1 agonist compounds implies an intestinal transit percentage reduction; an opposite effect is noticed in case of antagonist compounds. The latter are therefore capable to cancel the constipating effect of CB1 agonist compounds. […]

T2 sequence (P20272 whole entry): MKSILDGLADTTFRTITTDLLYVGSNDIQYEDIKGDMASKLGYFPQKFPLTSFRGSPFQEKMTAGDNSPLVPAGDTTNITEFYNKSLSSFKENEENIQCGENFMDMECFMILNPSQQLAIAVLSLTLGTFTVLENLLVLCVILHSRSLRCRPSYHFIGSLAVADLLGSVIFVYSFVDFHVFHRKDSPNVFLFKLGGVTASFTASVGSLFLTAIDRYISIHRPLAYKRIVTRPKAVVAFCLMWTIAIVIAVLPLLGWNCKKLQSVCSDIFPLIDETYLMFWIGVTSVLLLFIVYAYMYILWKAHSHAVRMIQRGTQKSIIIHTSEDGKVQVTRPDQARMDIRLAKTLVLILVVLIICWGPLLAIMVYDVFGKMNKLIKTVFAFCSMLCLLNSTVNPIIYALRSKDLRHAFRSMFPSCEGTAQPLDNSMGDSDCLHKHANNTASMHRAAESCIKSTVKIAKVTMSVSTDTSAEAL

## O=C(NN1CCCCC1)c1nn(-c2ccc(Cl)cc2Cl)c2c1CCc1sc(Br)cc1-2 [Example 3.2, N-piperidinyl-7-bromo-1-(2′,4′-dichlorophenyl)-4,5-dihydro-1H-thieno[2,3-g]indazol-3-carboxamide]
[1]
  Ki: 36.8 ± 5 nM
Rat [2]; WIN 55,212-2 (3 mg/kg) + compound (0.1-30 mg/kg), 0 min
  Body temperature: 38.0 °C
Rat [2]; WIN 55,212-2 (3 mg/kg) + compound (0.1-30 mg/kg), 15 min
  Body temperature: 38.0 °C
Rat [2]; WIN 55,212-2 (3 mg/kg) + compound (0.1-30 mg/kg), 30 min
  Body temperature: 34.0 °C
Rat [2]; WIN 55,212-2 (3 mg/kg) + compound (0.1-30 mg/kg), 60 min
  Body temperature: 34.5 °C
Rat [2]; WIN 55,212-2 (3 mg/kg) + compound (0.1-30 mg/kg), 90 min
  Body temperature: 35.8 °C
Rat [2]; WIN 55,212-2 (3 mg/kg) + compound (0.1-30 mg/kg), 120 min
  Body temperature: 36.8 °C
Rat [2]
  antagonist activity towards the hypothermia induced by WIN 55,212-2, in words: no variation of the body temperature with respect to the treatment with the only WIN 55,212-2
[3]
  Ki: 4.47 ± 0.14 nM
Rat [4]; compound alone 0.1-30 mg/kg i.p., 0 min
  Body temperature: 38.0 °C
Rat [4]; compound alone 0.1-30 mg/kg i.p., 15 min
  Body temperature: 37.9 °C
Rat [4]; compound alone 0.1-30 mg/kg i.p., 30 min
  Body temperature: 38.0 °C
Rat [4]; compound alone 0.1-30 mg/kg i.p., 60 min
  Body temperature: 38.2 °C
Rat [4]; compound alone 0.1-30 mg/kg i.p., 90 min
  Body temperature: 38.1 °C
Rat [4]; compound alone 0.1-30 mg/kg i.p., 120 min
  Body temperature: 37.9 °C
Rat [4]
  passage of the hemato-encephalic barrier: not able to pass the hemato-encephalic barrier
  effect on body temperature (hypothermia) of the compound alone, in words: In none of the examined cases there was a reduction of the body temperature

## Cc1cc2c(s1)CCc1c(C(=O)NN3CCCCC3)nn(-c3ccc(Cl)cc3Cl)c1-2 [Example 3.9, N-piperidinyl-7-methyl-1-(2′,4′-dichlorophenyl)-4,5-dihydro-1H-thieno[2,3-g]indazol-3-carboxamide]
[1]
  Ki: 55.1 ± 6 nM
other
  melting point: 216 °C
[3]
  Ki: 7.88 ± 0.5 nM
Rat [4]
  passage of the hemato-encephalic barrier: unable to pass the hemato-encephalic barrier

## O=C(NN1CCCCC1)c1nn(-c2ccc(Cl)cc2Cl)c2c1CCc1sc(Cl)cc1-2 [Example 3.1, N-piperidinyl-7-chloro-1-(2′,4′-dichlorophenyl)-4,5-dihydro-1H-thieno[2,3-g]indazol-3-carboxamide]
[1]
  Ki: 67.4 ± 6 nM
[3]
  Ki: 44.3 ± 0.5 nM

## O=C(NN1CCCC1)c1nn(-c2ccc(Cl)cc2Cl)c2c1CCc1sc(Br)cc1-2 [Example 3.7, N-pyrrolidinyl-7-bromo-1-(2′,4′-dichlorophenyl)-4,5-dihydro-1H-thieno[2,3-g]indazol-3-carboxamide]
[1]
  Ki: 195 ± 27 nM
other
  melting point: 227 °C
[3]
  Ki: 126 ± 5 nM

## Cc1c(C(=O)c2cccc3ccccc23)c2cccc3c2n1[C@H](CN1CCOCC1)CO3 [WIN 55,212-2, reference compound]
Rat intestinal motility [5]; WIN 55,212-2 0.5 mg/kg alone
  intestinal portion run by the marker with respect to the total intestine length: 25%
Rat [4]; WIN 55,212-2 3 mg/kg alone, 0 min from administration
  Body temperature: 37.9 °C
Rat [4]; WIN 55,212-2 3 mg/kg alone, 15 min
  Body temperature: 35.6 °C
Rat [4]; WIN 55,212-2 3 mg/kg alone, 30 min
  Body temperature: 33.8 °C
Rat [4]; WIN 55,212-2 3 mg/kg alone, 60 min
  Body temperature: 34.5 °C
Rat [4]; WIN 55,212-2 3 mg/kg alone, 90 min
  Body temperature: 35.8 °C
Rat [4]; WIN 55,212-2 3 mg/kg alone, 120 min
  Body temperature: 36.8 °C

## Cc1cc2c(s1)CCc1c(C(=O)NN3CCCCCC3)nn(-c3ccc(Cl)cc3Cl)c1-2 [Example 3.11, N-homopiperidinyl-7-methyl-1-(2′,4′-dichlorophenyl)-4,5-dihydro-1H-thieno[2,3-g]indazol-3-carboxamide]
[1]
  Ki: 57.1 ± 5 nM
other
  melting point: 229 °C
[3]
  Ki: 57 ± 6 nM

## O=C(NN1CCCCCC1)c1nn(-c2ccc(Cl)cc2Cl)c2c1CCc1sc(Br)cc1-2 [Example 3.8, N-homopiperidinyl-7-bromo-1-(2′,4′-dichlorophenyl)-4,5-dihydro-1H-thieno[2,3-g]indazol-3-carboxamide]
[1]
  Ki: 60 ± 1 nM
other
  melting point: 176 °C
[3]
  Ki: 9.6 ± 1.7 nM

## N-piperidino-5-(4-chlorophenyl)-1-(2,4-dichlorophenyl)-4-methylpyrazol-3-carboxyamide [SR141716A, reference compound]
Rat intestinal motility [5]; compound 2.5 mg/kg i.p.
  intestinal portion run by the marker with respect to the total intestine length: 75%
Rat [2]; WIN 55,212-2 (3 mg/kg) + compound (0.1 mg/kg), 30 min
  Body temperature: 35.3 °C
Rat [2]; WIN 55,212-2 (3 mg/kg) + compound (0.1 mg/kg), 60 min
  Body temperature: 36.9 °C
Rat [2]; WIN 55,212-2 (3 mg/kg) + compound (0.1 mg/kg), 90 min
  Body temperature: 37.5 °C
Rat [2]; WIN 55,212-2 (3 mg/kg) + compound (0.5 mg/kg), 30 min
  Body temperature: 37.0 °C
Rat [2]; WIN 55,212-2 (3 mg/kg) + compound (0.5 mg/kg), 60 min
  Body temperature: 37.8 °C
Rat [2]; WIN 55,212-2 (3 mg/kg) + compound (0.5 mg/kg), 90 min
  Body temperature: 37.9 °C
Rat [2]
  antagonist activity towards the hypothermia induced by WIN 55,212-2, in words: able to antagonize the effect of WIN 55,212-2
Rat intestinal motility [6]
  intestinal portion run by the marker with respect to the total intestine length: 50%
Rat [4]
  passage of the hemato-encephalic barrier: capable to pass the hemato-encephalic barrier
  effect on body temperature (hypothermia) of the compound alone, in words: has not implied any variation of the body temperature
